# PMC3199943, “Screening the MayBridge Rule of 3 Fragment Library for Compounds That Interact with the Trypanosoma brucei myo-Inositol-3-Phosphate Synthase and/or Show Trypanocidal Activity” (Molecular Biology International, 2011)
# Read-outs that look alike come from different tables or passages of the source.
# Experiments:
# [1] = tested on: A549 cells; test: Cytotoxicity against A549 cells, Alamar Blue; type: cell-based; details: Supplementary Table 1, compound 0.5 mM, percentage of controls (n=1); for viability at 500 µM: Homo sapiens, A549, 65 h
# Protocol: (§1) Cytotoxic effects against HeLa and A549 cells were determined in a similar manner. Briefly, the cells were cultured in DMEM supplemented with 10% FCS and 2 mM L-Glutamine. Cells were plated at initial cell concentration of 2 × 10^4 cells/well and incubated with the compounds for ~65 hours prior to addition of Alamar Blue solution for a further 5 hours.
# [2] = tested on: HeLa cells; test: cells; details: for viability at 500 µM: 65 h; for HeLa Cells Alamar Blue: Supplementary Table 1
# Protocol: as §1
# [3] = Homo sapiens, HeLa, read-out: HeLa Cells Alamar Blue
# [4] = compound 0.5 mM, percentage of controls, mean ± SD (n=3) or SE (n=2)
smiles,measurement,setting,value
"Cc1cccc2cc[nH]c12 [compound 95, 7‐methyl‐1H‐indole]",viability at 500 µM,[1],13.4%
same,viability at 500 µM,[2]; [3],11.9 ± 8.8%
"OCCc1coc2ccccc12 [compound 284, 2‐benzo[b]furan‐3‐ylethanol]",viability at 500 µM,[1],63.3%
same,viability at 500 µM,[2]; [3],58.7 ± 17.4%
"Cc1oc(-c2ccccc2)nc1CCO [compound 643, 2‐(5‐methyl‐2‐phenyl‐1,3‐oxazol‐4‐yl)ethan‐1‐ol]",A549 Cells Alamar Blue,[1],104.4 percentage of controls
same,HeLa Cells Alamar Blue,[2]; [4],45.5 ± 7.7 percentage of controls
"O=C(O)c1sccc1Cl [compound 290, 3‐chlorothiophene‐2‐carboxylic acid]",viability at 500 µM,[1],117%
same,viability at 500 µM,[2]; [3],86.9 ± 14.3%
"Nc1ccc(C(F)(F)F)cn1 [compound 283, 5‐(trifluoromethyl)pyridin‐2‐amine]",viability at 500 µM,[1],63.6%
same,viability at 500 µM,[2]; [3],92.7 ± 5.3%
"COc1ccc(Cl)cc1N [compound 246, 5‐chloro‐2‐methoxyaniline]",viability at 500 µM,[1],113%
same,viability at 500 µM,[2]; [3],113 ± 16.7%
"c1ccc2c(c1)CCO2 [compound 49, 2,3‐dihydrobenzo[b]furan]",viability at 500 µM,[1],87.3%
same,viability at 500 µM,[2]; [3],102 ± 8.6%
"Nc1ccc2[nH]ncc2c1 [compound 101, 1H‐indazol‐5‐amine]",viability at 500 µM,[1],70.6%
same,viability at 500 µM,[2]; [3],31.7 ± 16.2%
"COc1ccc(N)c(OC)c1 [compound 213, 2,4‐dimethoxyaniline]",viability at 500 µM,[1],61.2%
same,viability at 500 µM,[2]; [3],14 ± 8.2%
same,CC50,"[2]; Homo sapiens, HeLa, read-out: HeLa ED50",710 ± 96 µM
"FC(F)(F)c1nc2ccccc2[nH]1 [compound 499, 2‐(trifluoromethyl)‐1H‐benzo[d]imidazole]",viability at 500 µM,[1],116%
same,viability at 500 µM,[2]; [3],82 ± 14.1%
"Cc1onc(-c2ccccc2)c1CO [compound 534, (5‐methyl‐3‐phenyl‐4‐isoxazolyl)methanol]",viability at 500 µM,[1],62.9%
same,viability at 500 µM,[2]; [3],78.8 ± 15.6%
"Cn1ccnc1CO [compound 34, (1‐methyl‐1H‐imidazol‐2‐yl)methanol]",viability at 500 µM,[1],72.1%
same,viability at 500 µM,[2]; [3],97 ± 14%
"O=C(O)c1ccncc1 [compound 60, isonicotinic acid]",viability at 500 µM,[1],118%
same,viability at 500 µM,[2]; [3],98.3 ± 12.5%
"COC(=O)CSc1ccccc1 [compound 466, methyl 2‐(phenylthio)acetate]",viability at 500 µM,[1],84.7%
same,viability at 500 µM,[2]; [3],102 ± 4.8%
"O=C(O)c1ccccn1 [compound 58, 2‐pyridinecarboxylic acid]",viability at 500 µM,[1],97.9%
same,viability at 500 µM,[2]; [3],87.3 ± 6.1%
"OCc1ccnc(N2CCCC2)c1 [compound 438, (2‐pyrrolidin‐1‐ylpyrid‐4‐yl)methanol]",viability at 500 µM,[1],71.9%
same,viability at 500 µM,[2]; [3],103 ± 14.9%
"CCOC(=O)Cc1ccc(N)cc1 [compound 446, ethyl 2‐(4‐aminophenyl)acetate]",viability at 500 µM,[1],63.2%
same,viability at 500 µM,[2]; [3],80.1 ± 14.8%
"Nc1ccccc1N1CCCC1 [compound 289, 2‐pyrrolidin‐1‐ylaniline]",viability at 500 µM,[1],23.8%
same,viability at 500 µM,[2]; [3],11.4 ± 9.5%
"OCc1ccc(Oc2ccccc2)o1 [compound 540, (5‐phenoxy‐2‐furyl)methanol]",viability at 500 µM,[1],57.7%
same,viability at 500 µM,[2]; [3],13.7 ± 6.5%
"OCc1ccc(-c2ccncc2)cc1 [compound 488, (4‐pyrid‐4‐ylphenyl)methanol]",viability at 500 µM,[1],133%
same,viability at 500 µM,[2]; [3],65.5 ± 17.5%
"Nc1ncccc1OCc1ccccc1 [compound 624, 3‐(benzyloxy)pyridin‐2‐amine]",viability at 500 µM,[1],82.7%
same,viability at 500 µM,"[2]; Homo sapiens, HeLa, read-out: HeLa Cells Alamar Blue, Supplementary Table 1, compound 0.5 mM, percentage of controls, mean ± SD (n=3) or SE (n=2)",72.9 ± 14.8%
"Nc1cccc(COc2ccccc2)c1 [compound 616, 3‐(phenoxymethyl)aniline]",viability at 500 µM,[1],57.5%
same,viability at 500 µM,[2]; [3],80.5 ± 17.9%
"COC(=O)C1Cc2ccccc2N1 (stereo not shown) [compound 422, methyl 2‐indolinecarboxylate]",viability at 500 µM,[1],40.1%
same,viability at 500 µM,[2]; [3],11.1 ± 5.7%
"Nc1cccc(-c2cccnc2)c1 [compound 346, 3‐pyridin‐3‐ylaniline]",viability at 500 µM,[1],98.5%
same,viability at 500 µM,[2]; [3],73.9 ± 6.1%
"CN1CCN(c2ccc(N)cc2)CC1 [compound 562, 4‐(4‐methylpiperazino)aniline]",viability at 500 µM,[1],17.5%
same,viability at 500 µM,[2]; [3],8.2 ± 6.5%
"OCC1CCNCC1 [compound 40, 4‐piperidylmethanol]",viability at 500 µM,[1],104%
same,viability at 500 µM,[2]; [3],84.3 ± 9%
"FC(F)(F)c1cc[nH]n1 [compound 114, 3‐(trifluoromethyl)‐1H‐pyrazole]",viability at 500 µM,[1],73.8%
same,viability at 500 µM,[2]; [3],85.9 ± 6.1%
"NCCc1cccc2c1OCC2 [compound 293, 2,3‐Dihydrobenzo[b]furan‐7‐ethylamine]",viability at 500 µM,[1],19.8%
same,viability at 500 µM,[2]; [3],10.8 ± 0.1%
"NC(=S)COc1cccc(Cl)c1 [compound 633, 2‐(3‐chlorophenoxy)ethanethioamide]",viability at 500 µM,[1],90.3%
same,viability at 500 µM,[2]; [3],46.9 ± 11.1%
"Cn1nc(-c2ccccc2)cc1CO [compound 524, (1‐methyl‐3‐phenyl‐1H‐pyrazol‐5‐yl)methanol]",A549 Cells Alamar Blue,[1],60.7 percentage of controls
same,HeLa Cells Alamar Blue,[2]; [4],88.2 ± 10.3 percentage of controls
"OCc1csc(-c2ccccc2)n1 [compound 557, (2‐phenyl‐1,3‐thiazol‐4‐yl)methanol]",viability at 500 µM,[1],78.4%
same,viability at 500 µM,[2]; [3],58.1 ± 13.4%
"OCc1ccc(-n2cccn2)cc1 [compound 385, [4‐(1H‐pyrazol‐1‐yl)phenyl]methanol]",viability at 500 µM,[1],118%
same,viability at 500 µM,[2]; [3],83.4 ± 12.4%
"OCc1csc2ccc(Cl)cc12 [compound 608, (5‐chloro‐1‐benzothiophen‐3‐yl)methanol]",viability at 500 µM,[1],63.8%
same,viability at 500 µM,[2]; [3],78.3 ± 1%
"OCc1ccc(Oc2ccccc2)cc1 [compound 622, (4‐phenoxyphenyl)methanol]",viability at 500 µM,[1],70.7%
same,viability at 500 µM,[2]; [3],78.3 ± 15.4%
"Cc1cc(N)ccc1C(C)C.Cl [compound 497, 4‐isopropyl‐3‐methylaniline hydrochloride]",A549 Cells Alamar Blue,[1],115.7 percentage of controls
same,HeLa Cells Alamar Blue,[2]; [4],90.1 ± 2.1 percentage of controls
"CC(=O)Nc1ccccc1F [compound 212, N1‐(2‐fluorophenyl)acetamide]",viability at 500 µM,[1],65.4%
same,viability at 500 µM,[2]; [3],80.6 ± 6.6%
"O=C(O)c1cc2ccccc2[nH]1 [compound 275, 1H‐indole‐2‐carboxylic acid]",viability at 500 µM,[1],67.3%
same,viability at 500 µM,[2]; [3],89.7 ± 16.4%
"Cn1ccc2ccc(CO)cc21 [compound 278, (1‐methyl‐1H‐indol‐6‐yl)methanol]",viability at 500 µM,[1],47.8%
same,viability at 500 µM,[2]; [3],18.2 ± 10.4%
"CC(=O)c1ccc(F)c(Cl)c1 [compound 367, 1‐(3‐chloro‐4‐fluorophenyl)ethan‐1‐one]",viability at 500 µM,[1],58.8%
same,viability at 500 µM,[2]; [3],98.7 ± 6.5%
"CNCc1nn(C)c2ccccc12 [compound 401, N‐methyl‐N‐[(1‐methyl‐1H‐indazol‐3‐yl)methyl]amine]",A549 Cells Alamar Blue,[1],91.7 percentage of controls
same,HeLa Cells Alamar Blue,[2]; [4],92.5 ± 7.4 percentage of controls
"OCc1nc2ccccc2s1 [compound 312, 1,3‐benzothiazol‐2‐ylmethanol]",viability at 500 µM,[1],64.4%
same,viability at 500 µM,[2]; [3],80.7 ± 16.2%
"COC(=O)c1scc(C)c1Cl [compound 551, methyl 3‐chloro‐4‐methylthiophene‐2‐carboxylate]",A549 Cells Alamar Blue,[1],104.9 percentage of controls
same,HeLa Cells Alamar Blue,[2]; [4],90.7 ± 10.3 percentage of controls
"CCOC(=O)CCc1ccc(O)cc1 [compound 585, ethyl 3‐(4‐hydroxyphenyl)propanoate]",viability at 500 µM,[1],61.7%
same,viability at 500 µM,[2]; [3],63.1 ± 3.9%
"CNCc1cccnc1 [compound 57, N‐methyl‐N‐(3‐pyridylmethyl)amine]",viability at 500 µM,[1],79%
same,viability at 500 µM,[2]; [3],89.3 ± 9.6%
"NC(=S)CSc1ccccc1 [compound 472, 2‐(phenylthio)ethanethioamide]",viability at 500 µM,[1],86%
same,viability at 500 µM,[2]; [3],76.5 ± 11.2%
"CC(=O)c1cc2cc(Cl)ccc2o1 [compound 589, 1‐(5‐chlorobenzo[b]furan‐2‐yl)ethan‐1‐one]",A549 Cells Alamar Blue,[1],99.5 percentage of controls
same,HeLa Cells Alamar Blue,[2]; [4],95.8 ± 12.5 percentage of controls
"NC(=O)NCc1ccc(F)cc1 [compound 334, N‐(4‐fluorobenzyl)urea]",viability at 500 µM,[1],91.8%
same,viability at 500 µM,[2]; [3],112 ± 4.7%
"Cc1nc(-c2cccc(N)c2)cs1 [compound 546, 3‐(2‐methyl‐1,3‐thiazol‐4‐yl)aniline]",viability at 500 µM,[1],61.9%
same,viability at 500 µM,[2]; [3],68.5 ± 8.2%
"O=C(O)c1ccc(CN2CCCC2)cc1 [compound 665, 4‐(pyrrolidin‐1‐ylmethyl)benzoic acid]",viability at 500 µM,[1],104%
same,viability at 500 µM,[2]; [3],90.3 ± 6.3%
"Nc1ccccc1-n1cccn1 [compound 260, 2‐(1H‐pyrazol‐1‐yl)aniline]",viability at 500 µM,[1],97.3%
same,viability at 500 µM,[2]; [3],98.1 ± 5.6%
"O=C(O)Cc1ccc(Cl)c(Cl)c1 [compound 659, 2‐(3,4‐dichlorophenyl)acetic acid]",viability at 500 µM,[1],106%
same,viability at 500 µM,[2]; [3],74 ± 17.1%
"N#Cc1ccc(N)cc1C(F)(F)F [compound 500, 4‐amino‐2‐(trifluoromethyl)benzonitrile]",viability at 500 µM,[1],72.8%
same,viability at 500 µM,[2]; [3],51 ± 10.6%
"c1ccc(-c2c[nH]cn2)cc1 [compound 149, 4‐phenyl‐1H‐imidazole]",viability at 500 µM,[1],99.1%
same,viability at 500 µM,[2]; [3],80.2 ± 11.7%
"OCC1CCOCC1 [compound 43, tetrahydro‐2H‐pyran‐4‐ylmethanol]",viability at 500 µM,[1],79.2%
same,viability at 500 µM,[2]; [3],91.9 ± 5.9%
"CSc1ccc(Cl)cc1N [compound 382, 5‐chloro‐2‐(methylthio)aniline]",viability at 500 µM,[1],60.7%
same,viability at 500 µM,[2]; [3],110 ± 13.3%
"CNCc1cccc(-c2nccs2)c1 [compound 653, N‐methyl‐3‐(1,3‐thiazol‐2‐yl)benzylamine]",viability at 500 µM,[1],99.6%
same,viability at 500 µM,[2]; [3],93.3 ± 2.7%
"CC(=O)c1nccs1 [compound 79, 1‐(1,3‐thiazol‐2‐yl)ethan‐1‐one]",viability at 500 µM,[1],94.5%
same,viability at 500 µM,[2]; [3],103 ± 16.6%
